Laboratory results published in patent publication US8637504B2, “Sulfur-containing heterocyclic derivative having beta secretase inhibitory activity” (Shionogi & Co., Ltd., priority 2008, dated 2014).
pIC50: −log10 of the molar value. Like-named read-outs stand apart in the source and are kept apart here. Values belong to the compound of their own block, whether it stands above or below them.

Columns and labels:
Solubility test = type: physicochemical; settings: pH 1.2, simulated gastric fluid, kinetic from dmso stock; JP-I medium, turbidity after 4 hours
Protocol: A 2-fold dilution series (12 points) of a 10 mM solution of a test compound in DMSO was added to a medium (JP-I, JP-II) (2%), and solubility was assessed by 3 stages (High; >40 Medium; 3-40 μM, Low; <3 μM) from a turbidity after 4 hours (crystallization information).

Recombinant human BACE-1 = Recombinant human BACE-1 (Homo sapiens (Human), UniProt P56817); assay: Assay of β-secretase-inhibiting activity
CYP1A2 = CYP1A2 (Homo sapiens (Human), UniProt P05177); assay: CYP inhibition test (CYP1A2); type: in vitro ADME; settings: pooled human hepatic microsome, 7-ethoxyresorufin O-deethylation
Protocol: (§1) After the centrifugation at 3000 rpm for 15 minutes, resorufin (CYP1A2 metabolite) in the supernatant was quantified by a fluorescent multilabel counter and tributamide hydroxide (CYP2CP metabolite), mephenyloin 4′ hydroxide (CYP2C19 metabolite), […] (CYP2D6 metabolite), and terfenadine alcohol (CYP3A4 metabolite) were quantified by LC/MS/MS. Addition of only DMSO being a solvent dissolving a drug to a reaction system was adopted as a control (100%), remaining activity (%) was calculated at each concentration of a test drug added as the solution and […] was calculated by reverse presumption by a logistic model using a concentration and an inhibition rate.

CYP2C9 = CYP2C9 (Homo sapiens (Human), UniProt P11712); assay: CYP inhibition test (CYP2C9); type: in vitro ADME; settings: pooled human hepatic microsome, tolbutamide methyl-hydroxylation
Protocol: as §1

CYP2C19 = CYP2C19 (Homo sapiens (Human), UniProt P33261); assay: CYP inhibition test (CYP2C19); type: in vitro ADME; settings: pooled human hepatic microsome, mephenyloin 4′-hydroxylation
Protocol: as §1

CYP2D6 = CYP2D6 (Homo sapiens (Human), UniProt P10635); assay: CYP inhibition test (CYP2D6); type: in vitro ADME; settings: pooled human hepatic microsome, dextromethorphan O-demethylation
Protocol: as §1

CYP3A4 [1] = target: T1, CYP3A4 (Homo sapiens (Human), UniProt P08684); assay: CYP inhibition test (CYP3A4); type: in vitro ADME; settings: pooled human hepatic microsome, terfenedine hydroxylation
Protocol: as §1

[2] = Metabolism stability test; type: in vitro ADME; settings: human liver microsomes 0.5 mg protein/mL, NADPH, 37° C., 30 minutes
Protocol: Using a commercially available pooled human hepatic microsomes, a test compound was reacted for a constant time, a remaining rate was calculated by comparing a reacted sample and an unreacted sample, thereby, a degree of metabolism in liver was assessed.
A reaction was performed (oxidative reaction) at 37° C. for 0 minute or 30 minutes in the presence of 1 mmol/L NADPH in 0.2 mL of a buffer (50 mmol/L Tris-HCl pH 7.4, 150 mmol/L potassium chloride, 10 mmol/L magnesium chloride) containing 0.5 mg protein/mL of human liver microsomes. After the reaction, 50 μl, of the reaction solution was added to 100 μL of a methanol/acetonitrile=1/1 (v/v), mixed and centrifuged at 3000 rpm for 15 minutes. The test compound in the supernatant was quantified by LC/MS/MS, and a remaining amount of the test compound after the reaction was calculated, letting a compound amount at 0 minute reaction time to be 100%.

[3] = target: human ether-a-go-go related gene (hERG) channel (Homo sapiens (Human), UniProt Q12809); assay: hERG test; type: cell-based; settings: HEK293 cells expressing hERG, patch clamp, applied 10 minutes
Text: For the purpose of assessing risk of an electrocardiogram QT interval prolongation, effects on delayed rectifier K+ current (IKr), which plays an important role in the ventricular repolarization process, was studied using HEK293 cells expressing human ether-a-go-go related gene (hERG) channel.
After a cell was retained at a membrane potential of −80 mV by whole cell patch clamp method using an automated patch clamp system (PatchXpress 7000A, Axon Instruments Inc.), IKr induced by depolarization pulse stimulation at +50 mV for 2 seconds and, further, repolarization pulse stimulation at −50 mV for 2 seconds was recorded. […] From the recording IKr, an absolute value of the tail peak current was measured based on the current value at the resting membrane potential using an analysis software (DataXpress ver.1, Molecular Devices Corporation). Further, the % inhibition relative to the tail peak current before application of the test substance was calculated, and compared with the vehicle-applied group (0.1% dimethyl sulfoxide solution) to assess influence of the test substance on IKr.

CYP3A4 [4] = target: T1, CYP3A4; assay: CYP3A4 fluorescent MBI test; type: in vitro ADME; settings: pre-reaction time 0 or 30 minutes, substrate 7-BFC
Protocol: The CYP3A4 fluorescent MBI test is a test of investigating enhancement of CYP3A4 inhibition of a compound by a metabolism reaction, and the test was performed using, as CYP3A4 enzyme expressed in Escherichia coli and employing, as an index, a reaction in which 7-benzyloxytrifluoromethylchmarin (7-BFC) is debenzylated by the CYP3A4 enzyme to produce a metabolite, 7-hydroxytrifluoromethylchmarin (HFC) emitting fluorescent light.
The reaction conditions were as follows: substrate, 5.6 μmol/L 7-BFC; pre-reaction time, 0 or 30 minutes; reaction time, 15 minutes; reaction temperature, 25° C. […]
An enzyme in a K-Pi buffer (pH 7.4) and a test drug solution as a pre-reaction solution were added to a 96-well plate at the composition of the pre-reaction, a part of it was transferred to another 96-well plate so that it was 1/10 diluted by a substrate in a K-Pi buffer, NADPH as a co-factor was added to initiate a reaction as an index (without preincubation) and, after a predetermined time of a reaction, acetonitrile/0.5 mol/L Tris (trishydroxyaminomethane)=4/1 was added to stop the reaction. […] For the plate on which each index reaction had been performed, a fluorescent value of 7-HFC which is a metabolite was measured with a fluorescent plate reader. […]

[5] = Recombinant human BACE-1 7.4 nM, substrate peptide 18 nM, pH 5.0, 30° C. 3 hours

Chain of CYP2C9 (P11712 whole entry): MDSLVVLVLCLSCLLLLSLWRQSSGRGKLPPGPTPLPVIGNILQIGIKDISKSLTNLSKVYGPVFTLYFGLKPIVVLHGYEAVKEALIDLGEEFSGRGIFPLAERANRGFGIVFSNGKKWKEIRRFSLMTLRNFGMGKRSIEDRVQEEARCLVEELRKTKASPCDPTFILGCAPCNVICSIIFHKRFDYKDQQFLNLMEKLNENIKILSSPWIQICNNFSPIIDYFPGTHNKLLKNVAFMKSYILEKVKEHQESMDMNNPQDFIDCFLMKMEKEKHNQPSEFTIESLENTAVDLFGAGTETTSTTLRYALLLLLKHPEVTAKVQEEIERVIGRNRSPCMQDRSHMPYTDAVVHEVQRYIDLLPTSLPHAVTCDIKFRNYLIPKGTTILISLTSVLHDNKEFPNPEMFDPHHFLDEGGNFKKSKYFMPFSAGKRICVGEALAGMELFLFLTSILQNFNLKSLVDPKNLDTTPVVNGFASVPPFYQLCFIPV
T1 sequence (P08684 whole entry): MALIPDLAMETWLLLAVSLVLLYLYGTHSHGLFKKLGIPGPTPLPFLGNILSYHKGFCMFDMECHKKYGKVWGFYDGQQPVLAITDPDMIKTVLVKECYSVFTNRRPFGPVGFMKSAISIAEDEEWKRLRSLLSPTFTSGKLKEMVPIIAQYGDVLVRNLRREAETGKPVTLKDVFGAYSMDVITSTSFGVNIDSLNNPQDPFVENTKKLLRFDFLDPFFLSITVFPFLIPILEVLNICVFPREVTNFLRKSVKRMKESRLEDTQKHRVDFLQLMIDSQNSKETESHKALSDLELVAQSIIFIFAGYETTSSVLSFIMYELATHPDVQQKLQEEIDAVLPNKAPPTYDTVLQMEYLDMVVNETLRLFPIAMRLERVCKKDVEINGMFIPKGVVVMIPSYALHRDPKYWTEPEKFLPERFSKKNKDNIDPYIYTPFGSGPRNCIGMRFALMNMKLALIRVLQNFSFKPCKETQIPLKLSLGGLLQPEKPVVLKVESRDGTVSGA
Chain of CYP2D6 (P10635 whole entry): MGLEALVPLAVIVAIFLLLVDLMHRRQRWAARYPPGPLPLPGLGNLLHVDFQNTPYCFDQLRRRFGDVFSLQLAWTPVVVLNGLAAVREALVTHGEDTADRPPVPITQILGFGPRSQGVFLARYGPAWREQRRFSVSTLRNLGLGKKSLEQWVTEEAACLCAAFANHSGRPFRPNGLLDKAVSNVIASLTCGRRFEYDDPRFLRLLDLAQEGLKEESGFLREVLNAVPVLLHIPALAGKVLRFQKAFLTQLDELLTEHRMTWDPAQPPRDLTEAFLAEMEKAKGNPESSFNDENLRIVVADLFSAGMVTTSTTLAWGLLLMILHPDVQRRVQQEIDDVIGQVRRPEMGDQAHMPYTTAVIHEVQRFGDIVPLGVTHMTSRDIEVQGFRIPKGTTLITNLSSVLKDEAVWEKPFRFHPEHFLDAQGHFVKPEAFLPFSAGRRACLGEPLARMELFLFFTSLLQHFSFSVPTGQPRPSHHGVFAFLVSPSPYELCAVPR
Chain of CYP2C19 (P33261 whole entry): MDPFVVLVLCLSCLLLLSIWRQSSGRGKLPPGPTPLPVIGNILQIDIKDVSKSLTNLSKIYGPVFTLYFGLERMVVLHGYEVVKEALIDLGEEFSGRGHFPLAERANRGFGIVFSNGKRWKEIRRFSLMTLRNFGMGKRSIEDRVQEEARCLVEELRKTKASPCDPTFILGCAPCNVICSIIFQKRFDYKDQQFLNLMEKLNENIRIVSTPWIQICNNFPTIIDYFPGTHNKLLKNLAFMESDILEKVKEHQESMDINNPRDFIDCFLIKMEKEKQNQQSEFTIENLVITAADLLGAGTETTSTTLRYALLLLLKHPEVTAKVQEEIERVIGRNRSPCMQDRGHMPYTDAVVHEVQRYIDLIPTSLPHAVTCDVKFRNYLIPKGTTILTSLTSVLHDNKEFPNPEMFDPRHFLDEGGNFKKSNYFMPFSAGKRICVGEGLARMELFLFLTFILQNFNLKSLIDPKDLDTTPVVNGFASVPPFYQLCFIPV
Chain of Recombinant human BACE-1 (P56817 46-501): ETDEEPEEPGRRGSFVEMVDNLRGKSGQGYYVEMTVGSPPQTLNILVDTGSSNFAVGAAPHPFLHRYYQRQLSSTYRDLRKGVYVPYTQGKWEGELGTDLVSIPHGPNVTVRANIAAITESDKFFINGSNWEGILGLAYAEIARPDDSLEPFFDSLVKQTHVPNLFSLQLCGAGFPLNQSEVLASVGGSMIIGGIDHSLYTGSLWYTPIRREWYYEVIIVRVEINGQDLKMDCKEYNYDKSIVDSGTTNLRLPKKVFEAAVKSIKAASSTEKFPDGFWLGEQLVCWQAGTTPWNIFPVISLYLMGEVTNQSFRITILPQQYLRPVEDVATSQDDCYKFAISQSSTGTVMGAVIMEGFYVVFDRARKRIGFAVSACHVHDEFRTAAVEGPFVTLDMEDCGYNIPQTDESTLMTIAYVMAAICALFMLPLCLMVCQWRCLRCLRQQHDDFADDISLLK
Chain of CYP1A2 (P05177 whole entry): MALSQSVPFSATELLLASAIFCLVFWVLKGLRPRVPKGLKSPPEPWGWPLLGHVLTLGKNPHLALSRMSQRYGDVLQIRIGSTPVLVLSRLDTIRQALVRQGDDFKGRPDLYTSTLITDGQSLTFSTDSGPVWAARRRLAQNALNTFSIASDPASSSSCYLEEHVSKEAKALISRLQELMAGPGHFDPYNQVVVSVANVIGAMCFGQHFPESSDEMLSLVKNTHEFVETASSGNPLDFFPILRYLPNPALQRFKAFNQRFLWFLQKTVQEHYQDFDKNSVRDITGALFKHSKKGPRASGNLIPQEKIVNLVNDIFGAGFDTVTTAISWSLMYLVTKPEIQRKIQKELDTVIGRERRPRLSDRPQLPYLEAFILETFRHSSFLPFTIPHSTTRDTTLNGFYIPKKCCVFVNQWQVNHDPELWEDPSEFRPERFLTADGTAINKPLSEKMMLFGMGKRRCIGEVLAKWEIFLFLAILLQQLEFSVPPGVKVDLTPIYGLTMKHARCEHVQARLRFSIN
Chain of human ether-a-go-go related gene (hERG) channel (Q12809 whole entry): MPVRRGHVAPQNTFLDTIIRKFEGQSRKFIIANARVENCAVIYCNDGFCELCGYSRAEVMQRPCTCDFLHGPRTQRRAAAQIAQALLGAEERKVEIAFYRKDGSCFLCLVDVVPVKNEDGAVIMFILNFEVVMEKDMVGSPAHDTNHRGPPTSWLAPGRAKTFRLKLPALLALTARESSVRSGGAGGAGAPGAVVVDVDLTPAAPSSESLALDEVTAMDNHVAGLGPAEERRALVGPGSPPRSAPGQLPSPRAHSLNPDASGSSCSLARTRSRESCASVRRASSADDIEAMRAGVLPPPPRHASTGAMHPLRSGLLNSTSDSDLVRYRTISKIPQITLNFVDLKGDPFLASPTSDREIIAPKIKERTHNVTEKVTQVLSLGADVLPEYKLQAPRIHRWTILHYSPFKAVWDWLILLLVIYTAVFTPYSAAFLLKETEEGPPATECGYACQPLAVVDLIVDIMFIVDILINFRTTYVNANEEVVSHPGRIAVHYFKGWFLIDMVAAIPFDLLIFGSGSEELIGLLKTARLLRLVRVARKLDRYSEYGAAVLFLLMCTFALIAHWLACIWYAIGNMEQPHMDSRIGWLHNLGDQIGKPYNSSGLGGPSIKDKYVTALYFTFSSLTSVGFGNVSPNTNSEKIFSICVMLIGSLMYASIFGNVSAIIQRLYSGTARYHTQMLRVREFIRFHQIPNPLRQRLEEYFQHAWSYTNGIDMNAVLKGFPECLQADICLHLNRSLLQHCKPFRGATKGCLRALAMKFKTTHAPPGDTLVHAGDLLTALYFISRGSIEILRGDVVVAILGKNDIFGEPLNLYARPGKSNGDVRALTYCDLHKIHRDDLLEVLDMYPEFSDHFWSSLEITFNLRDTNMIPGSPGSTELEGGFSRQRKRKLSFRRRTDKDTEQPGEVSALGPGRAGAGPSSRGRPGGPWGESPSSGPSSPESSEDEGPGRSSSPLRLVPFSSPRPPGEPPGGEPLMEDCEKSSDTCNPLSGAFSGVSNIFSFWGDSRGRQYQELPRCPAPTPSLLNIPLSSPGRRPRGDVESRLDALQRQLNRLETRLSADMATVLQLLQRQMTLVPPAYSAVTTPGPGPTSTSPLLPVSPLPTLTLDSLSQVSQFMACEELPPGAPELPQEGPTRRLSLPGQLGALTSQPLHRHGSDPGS

Compound: COc1cnc(C(=O)Nc2cccc(C3(C4CCCCC4)CSC(N)=N3)c2)cn1 (centres unmarked) [Compound 2]
- solubility at 4 h (Solubility test): > 40 µM

Compound: NC1=NC(c2ccc(F)cc2)(c2cccc(NC(=O)c3ncc(Cl)cc3Cl)c2)CS1 (centres unmarked) [Compound 9]
- solubility at 4 h (Solubility test): > 40 µM

Compound: CC1=CSC(N)=N[C@]1(C)c1cc(NC(=O)c2cnc(C)cn2)ccc1F [Compound 23]
- solubility at 4 h (Solubility test): > 40 µM
- pIC50 (Recombinant human BACE-1; [5]): 5.28

Compound: C[C@@]1(c2cc(NC(=O)c3ccc(OCCF)cn3)ccc2F)C=CSC(N)=N1 [Compound 32]
- solubility at 4 h (Solubility test): > 40 µM
- pIC50 (Recombinant human BACE-1): ≥ 6.00

Compound: Cc1cc(C(=O)Nc2ccc(F)c([C@]3(C)C=CSC(N)=N3)c2)n(C)n1 [Compound 35]
- pIC50 (CYP1A2): < 4.70
- pIC50 (CYP2C9): < 4.70
- pIC50 (CYP2C19): < 4.70
- pIC50 (CYP2D6): < 4.70
- pIC50 (CYP3A4 [1]): < 4.70
- pIC50 (Recombinant human BACE-1; [5]): 7.02

Compound: C[C@@]1(c2cc(NC(=O)c3cnc(-c4ncco4)cn3)ccc2F)C=CSC(N)=N1 [Compound 38]
- remaining amount of the test compound after the reaction [2]: 95%
- pIC50 (Recombinant human BACE-1; [5]): 6.52

Compound: Cn1ccnc1COc1cnc(C(=O)Nc2ccc(F)c([C@]3(C)C=CSC(N)=N3)c2)cn1 [Compound 60]
- solubility at 4 h (Solubility test): > 40 µM
- pIC50 (Recombinant human BACE-1; [5]): 6.61

Compound: C[C@@]1(c2cc(NC(=O)c3cc4n(n3)CCN4)ccc2F)C=CSC(N)=N1 [Compound 63]
- pIC50 (CYP1A2): < 4.70
- pIC50 (CYP2C9): < 4.70
- pIC50 (CYP2C19): < 4.70
- pIC50 (CYP2D6): < 4.70
- pIC50 (CYP3A4 [1]): < 4.70
- pIC50 (Recombinant human BACE-1; [5]): 6.36

Compound: CC(C)(C)S(=O)(=O)Nc1cnc(C(=O)Nc2ccc(F)c([C@]3(C)C=CSC(N)=N3)c2)cn1 [Compound 68]
- pIC50 (CYP1A2): < 4.70
- pIC50 (CYP2C9): < 4.70
- pIC50 (CYP2C19): < 4.70
- pIC50 (CYP2D6): < 4.70
- pIC50 (CYP3A4 [1]): < 4.70

Compound: C[C@@]1(c2cc(NC(=O)c3cnc(-n4cncn4)cn3)ccc2F)C=CSC(N)=N1 [Compound 70]
- solubility at 4 h (Solubility test): > 40 µM
- remaining amount of the test compound after the reaction [2]: 94%
- pIC50 (Recombinant human BACE-1; [5]): 7.44

Compound: CNC(=O)c1ccc(-c2ccc(F)c([C@]3(C)C=CSC(N)=N3)c2)cn1 [Compound 92]
- % inhibition of tail peak current (IKr) [3]: 7.9%

Compound: C=C1C[C@@](C)(c2cc(NC(=O)c3ccc(C#N)cn3)cnc2Cl)N=C(N)S1 [Compound 95]
- pIC50 (Recombinant human BACE-1): ≥ 6.00

Compound: C/C(CN1CCOCC1)=C1\C[C@@](C)(c2cc(NC(=O)c3ccc(C#N)cn3)ccc2F)N=C(N)S1 [Compound 96]
- pIC50 (Recombinant human BACE-1): ≥ 6.00

Compound: C/C(CN1CCCC1)=C1\C[C@@](C)(c2cc(NC(=O)c3ccc(C#N)cn3)ccc2F)N=C(N)S1 [Compound 98]
- pIC50 (Recombinant human BACE-1): ≥ 6.00

Second part, led by results:

- IC50 difference (with/without preincubation) (CYP3A4 [4]): < 3000 nM
- pIC50 (Recombinant human BACE-1; [5]): 7.85
Compound: C=C1C[C@@](C)(c2cc(NC(=O)c3cnc(OC)cn3)cnc2Cl)N=C(N)S1 [Compound 99]

- pIC50 (Recombinant human BACE-1): ≥ 6.00
Compound: C/C(CN(C)C)=C1\C[C@@](C)(c2cc(NC(=O)c3ccc(C#N)cn3)ccc2F)N=C(N)S1 [Compound 100]

- pIC50 (Recombinant human BACE-1; [5]): 7.66
Compound: C=C1C[C@@](C)(c2cc(NC(=O)c3ncc(C#N)cc3F)cnc2Cl)N=C(N)S1 [Compound 101]

- pIC50 (Recombinant human BACE-1; [5]): 7.44
Compound: C=C1C[C@@](C)(c2cc(NC(=O)c3cnc(OC)cn3)cnc2C)N=C(N)S1 [Compound 102]
- % inhibition of tail peak current (IKr) [3]: 2.3%

- pIC50 (Recombinant human BACE-1): ≥ 6.00
Compound: C=C1C[C@@](C)(c2cc(NC(=O)c3ccc(C#N)cn3)cnc2C)N=C(N)S1 [Compound 103]

- pIC50 (CYP1A2): < 4.70
- pIC50 (CYP2C9): < 4.70
- pIC50 (CYP2C19): < 4.70
- pIC50 (CYP2D6): < 4.70
- pIC50 (CYP3A4 [1]): < 4.70
- pIC50 (Recombinant human BACE-1; [5]): 7.20
Compound: C=C1C[C@@](C)(c2cncc(NC(=O)c3cnc(OC)cn3)c2)N=C(N)S1 [Compound 104]

- pIC50 (Recombinant human BACE-1): ≥ 6.00
Compound: C=C1C[C@@](C)(c2cncc(NC(=O)c3ccc(C#N)cn3)c2)N=C(N)S1 [Compound 105]

- pIC50 (CYP1A2): < 4.70
- pIC50 (CYP2C9): < 4.70
- pIC50 (CYP2C19): < 4.70
- pIC50 (CYP2D6): < 4.70
- pIC50 (CYP3A4 [1]): < 4.70
- pIC50 (Recombinant human BACE-1; [5]): 6.99
Compound: C=C1C[C@@](C)(c2cncc(NC(=O)c3ncc(C(F)(F)F)cc3Cl)c2)N=C(N)S1 [Compound 106]

- pIC50 (Recombinant human BACE-1): ≥ 6.00
Compound: C=C1C[C@@](C)(c2cncc(NC(=O)c3ccc(C(F)(F)F)cn3)c2)N=C(N)S1 [Compound 107]

- IC50 difference (with/without preincubation) (CYP3A4 [4]): < 3000 nM
- pIC50 (Recombinant human BACE-1): ≥ 6.00
Compound: CC1=C[C@@](C)(c2cncc(NC(=O)c3ccc(C#N)cn3)c2)N=C(N)S1 [Compound 108]

- remaining amount of the test compound after the reaction [2]: 95%
Compound: C[C@@]1(c2cccc(-c3cncc(C#N)c3)c2)CCSC(N)=N1 [Compound 212]

- remaining amount of the test compound after the reaction [2]: 98%
Compound: C[C@@]1(c2cccc(-c3ccc(F)nc3F)c2)CCSC(N)=N1 [Compound 213]
